Assay results as given in ChEMBL document CHEMBL1201862, “PubChem BioAssay data set” (2004).
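Method: 48-hour compound exposure of cells in 96-well plates, five concentrations, linear interpolation of endpoints. GI50 marks 50% less growth.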 Activity calls are given as the source filed them. No stated cut-off is given here; in the data, active = GI50 up to about 1.1 µM and inactive = higher.

Key:
Assay in all cases: NCI tumour cell line growth inhibition, 48 h
[1] = tested on: 786-0
[2] = tested on: A498
[3] = tested on: A549
[4] = tested on: ACHN
[5] = tested on: BT-549
[6] = tested on: CAKI-1
[7] = tested on: CCRF-CEM
[8] = tested on: COLO 205
[9] = tested on: EKVX
[10] = tested on: HCC 2998
[11] = tested on: HCT-116
[12] = tested on: HCT-15
[13] = tested on: HL-60
[14] = tested on: HOP-62
[15] = tested on: HOP-92
[16] = tested on: HT-29
[17] = tested on: IGROV-1
[18] = tested on: K562
[19] = tested on: KM12
[20] = tested on: LOX IMVI
[21] = tested on: M14
[22] = tested on: MCF7
[23] = tested on: MDA-MB-231
[24] = tested on: MDA-MB-435
[25] = tested on: MDA-N
[26] = tested on: MOLT-4
[27] = tested on: Malme-3M
[28] = tested on: NCI-H226
[29] = tested on: NCI-H460
[30] = tested on: NCI-H522
[31] = tested on: NCI/ADR-RES
[32] = tested on: OVCAR-4
[33] = tested on: OVCAR-5
[34] = tested on: OVCAR-8
[35] = tested on: PC-3
[36] = tested on: RXF 393
[37] = tested on: SF-268
[38] = tested on: SF-295
[39] = tested on: SF-539
[40] = tested on: SK-MEL-28
[41] = tested on: SK-MEL-2
[42] = tested on: SK-MEL-5
[43] = tested on: SK-OV-3
[44] = tested on: SN12C
[45] = tested on: SNB-19
[46] = tested on: SNB-75
[47] = tested on: SW-620
[48] = tested on: TK-10
[49] = tested on: U-251
[50] = tested on: UACC-257
[51] = tested on: UACC-62
[52] = tested on: DU-145
[53] = tested on: Hs-578T
[54] = tested on: NCI-H23
[55] = tested on: OVCAR-3
[56] = tested on: RPMI-8226
[57] = tested on: SR
[58] = tested on: T47D
[59] = tested on: UO-31

Cc1ccc(S(=O)(=O)Nn2c(O)c(C#N)c(-c3ccc([N+](=O)[O-])cc3)c(C#N)c2=O)cc1
GI50 [1]: > 100 µM (inactive)
GI50 [2]: > 100 µM (inactive)
GI50 [3]: > 100 µM (inactive)
GI50 [4]: > 100 µM (inactive)
GI50 [5]: > 100 µM (inactive)
GI50 [6]: > 100 µM (inactive)
GI50 [7]: > 100 µM (inactive)
GI50 [8]: > 100 µM (inactive)
GI50 [9]: > 100 µM (inactive)
GI50 [10]: > 100 µM (inactive)
GI50 [11]: > 100 µM (inactive)
GI50 [12]: > 100 µM
GI50 [13]: > 100 µM (inactive)
GI50 [14]: > 100 µM (inactive)
GI50 [15]: > 100 µM (inactive)
GI50 [16]: > 100 µM (inactive)
GI50 [17]: > 100 µM (inactive)
GI50 [18]: > 100 µM (inactive)
GI50 [19]: > 100 µM (inactive)
GI50 [20]: > 100 µM (inactive)
GI50 [21]: > 100 µM (inactive)
GI50 [22]: > 100 µM (inactive)
GI50 [23]: > 100 µM (inactive)
GI50 [24]: > 100 µM (inactive)
GI50 [25]: > 100 µM (inactive)
GI50 [26]: > 100 µM (inactive)
GI50 [27]: > 100 µM (inactive)
GI50 [28]: > 100 µM (inactive)
GI50 [29]: > 100 µM (inactive)
GI50 [30]: > 100 µM (inactive)
GI50 [31]: > 100 µM (inactive)
GI50 [32]: > 100 µM (inactive)
GI50 [33]: > 100 µM (inactive)
GI50 [34]: > 100 µM (inactive)
GI50 [35]: > 100 µM (inactive)
GI50 [36]: > 100 µM (inactive)
GI50 [37]: > 100 µM (inactive)
GI50 [38]: > 100 µM (inactive)
GI50 [39]: > 100 µM (inactive)
GI50 [40]: > 100 µM (inactive)
GI50 [41]: > 100 µM (inactive)
GI50 [42]: > 100 µM (inactive)
GI50 [43]: > 100 µM (inactive)
GI50 [44]: > 100 µM (inactive)
GI50 [45]: > 100 µM (inactive)
GI50 [46]: > 100 µM (inactive)
GI50 [47]: > 100 µM (inactive)
GI50 [48]: > 100 µM (inactive)
GI50 [49]: > 100 µM (inactive)
GI50 [50]: > 100 µM (inactive)
GI50 [51]: > 100 µM (inactive)

O=C(O)C1C2CCC(C2)C1c1ccccc1 (stereo unspecified)
GI50 [1]: > 100 µM (inactive)
GI50 [2]: > 100 µM (inactive)
GI50 [3]: > 100 µM (inactive)
GI50 [4]: > 100 µM (inactive)
GI50 [6]: > 100 µM (inactive)
GI50 [7]: > 100 µM (inactive)
GI50 [8]: > 100 µM (inactive)
GI50 [52]: > 100 µM (inactive)
GI50 [9]: > 100 µM (inactive)
GI50 [10]: > 100 µM (inactive)
GI50 [11]: > 100 µM (inactive)
GI50 [12]: > 100 µM
GI50 [13]: > 100 µM (inactive)
GI50 [14]: > 100 µM (inactive)
GI50 [15]: > 100 µM (inactive)
GI50 [16]: > 100 µM (inactive)
GI50 [53]: > 100 µM (inactive)
GI50 [18]: > 100 µM (inactive)
GI50 [19]: > 100 µM (inactive)
GI50 [20]: > 100 µM (inactive)
GI50 [21]: > 100 µM (inactive)
GI50 [22]: > 100 µM (inactive)
GI50 [23]: > 100 µM (inactive)
GI50 [24]: > 100 µM (inactive)
GI50 [25]: > 100 µM (inactive)
GI50 [26]: > 100 µM (inactive)
GI50 [27]: > 100 µM (inactive)
GI50 [28]: > 100 µM (inactive)
GI50 [54]: > 100 µM (inactive)
GI50 [29]: > 100 µM (inactive)
GI50 [30]: > 100 µM (inactive)
GI50 [31]: > 100 µM (inactive)
GI50 [55]: > 100 µM (inactive)
GI50 [33]: > 100 µM (inactive)
GI50 [34]: > 100 µM (inactive)
GI50 [35]: > 100 µM (inactive)
GI50 [56]: > 100 µM (inactive)
GI50 [36]: > 100 µM (inactive)
GI50 [37]: > 100 µM (inactive)
GI50 [38]: > 100 µM (inactive)
GI50 [39]: > 100 µM (inactive)
GI50 [40]: > 100 µM (inactive)
GI50 [41]: 55.5 µM (inactive)
GI50 [42]: > 100 µM (inactive)
GI50 [43]: > 100 µM (inactive)
GI50 [44]: > 100 µM (inactive)
GI50 [45]: > 100 µM (inactive)
GI50 [46]: > 100 µM (inactive)
GI50 [57]: > 100 µM (inactive)
GI50 [47]: > 100 µM (inactive)
GI50 [58]: > 100 µM (inactive)
GI50 [48]: > 100 µM (inactive)
GI50 [49]: > 100 µM (inactive)
GI50 [50]: > 100 µM (inactive)
GI50 [51]: > 100 µM (inactive)
GI50 [59]: > 100 µM (inactive)

O=C(NNCc1ccc(Cl)cc1)Nc1cccc2ccccc12
GI50 [1]: 51.6 µM (inactive)
GI50 [4]: 45 µM (inactive)
GI50 [5]: 97.1 µM (inactive)
GI50 [6]: 42.7 µM (inactive)
GI50 [7]: > 100 µM (inactive)
GI50 [8]: > 100 µM (inactive)
GI50 [52]: 69.2 µM (inactive)
GI50 [9]: > 100 µM (inactive)
GI50 [10]: > 100 µM (inactive)
GI50 [11]: 63 µM (inactive)
GI50 [12]: > 100 µM
GI50 [13]: > 100 µM (inactive)
GI50 [14]: 48.2 µM (inactive)
GI50 [15]: 29.3 µM (inactive)
GI50 [16]: > 100 µM (inactive)
GI50 [17]: > 100 µM (inactive)
GI50 [18]: > 100 µM (inactive)
GI50 [19]: 68.4 µM (inactive)
GI50 [20]: > 100 µM (inactive)
GI50 [21]: > 100 µM (inactive)
GI50 [22]: 26.8 µM (inactive)
GI50 [24]: 52.6 µM (inactive)
GI50 [25]: > 100 µM (inactive)
GI50 [26]: 29.4 µM (inactive)
GI50 [27]: > 100 µM (inactive)
GI50 [28]: > 100 µM (inactive)
GI50 [54]: > 100 µM (inactive)
GI50 [29]: 41.5 µM (inactive)
GI50 [30]: 27.3 µM (inactive)
GI50 [31]: > 100 µM (inactive)
GI50 [55]: > 100 µM (inactive)
GI50 [32]: > 100 µM (inactive)
GI50 [33]: 94.6 µM (inactive)
GI50 [34]: > 100 µM (inactive)
GI50 [35]: > 100 µM (inactive)
GI50 [56]: 16.4 µM (inactive)
GI50 [36]: > 100 µM (inactive)
GI50 [37]: 93.1 µM (inactive)
GI50 [38]: 82 µM (inactive)
GI50 [39]: 47.4 µM (inactive)
GI50 [40]: > 100 µM (inactive)
GI50 [41]: > 100 µM (inactive)
GI50 [42]: 76.2 µM (inactive)
GI50 [44]: > 100 µM (inactive)
GI50 [45]: > 100 µM (inactive)
GI50 [46]: > 100 µM (inactive)
GI50 [57]: > 100 µM (inactive)
GI50 [47]: > 100 µM (inactive)
GI50 [58]: 28.6 µM (inactive)
GI50 [48]: > 100 µM (inactive)
GI50 [49]: 58.5 µM (inactive)
GI50 [50]: > 100 µM (inactive)
GI50 [51]: 90.4 µM (inactive)
GI50 [59]: 84.1 µM (inactive)
